Values after ≈ are worked out from the molar mass of the structure shown.
What was measured:
[1] = test system: methicillin-resistant S. aureus SA 3202; experiment: In vitro antibacterial susceptibility testing, broth dilution micro-method; assay type: cell-based, Staphylococcus aureus; conditions: Staphylococcus aureus; clinical isolate MRSA SA 3202; MH broth, 24 h, 37 °C
Description: (§1) The synthesized compounds were evaluated for in vitro antibacterial activity against representatives of multidrug-resistant bacteria, clinical isolates of methicillin-resistant Staphylococcus aureus (MRSA) 63718, SA 630 and SA 3202 that were obtained from the National Institute of Public Health, Prague, Czech Republic. Staphylococcus aureus ATCC 29213 was used as a reference and quality control strain. Ampicillin (Sigma-Aldrich) was used as the standard. Prior to testing, each strain was passaged onto nutrient agar (Oxoid, Hampshire, UK) with 5% of bovine blood, and bacterial inocula were prepared by suspending a small portion of bacterial colony in sterile phosphate buffered saline (pH 7.2–7.3). The cell density was adjusted to 0.5 McFarland units using a densitometer (Densi-La-Meter, LIAP, Riga, Latvia). The final inoculum was made by 1:20 dilution of the suspension with the Mueller-Hinton broth (MH broth). […] The broth dilution micro-method modified according to NCCLS guidelines in MH broth was used to determine the minimum inhibitory concentration (MIC). Drug-free controls, sterility controls and controls consisted of MH broth and DMSO alone were included. The determination of results was performed visually after 24 h of static incubation in the darkness at 37 °C in an aerobic atmosphere. The MICs were defined as the lowest concentration of the compound at which no visible bacterial growth was observed.

[2] = test system: methicillin-resistant S. aureus SA 630; experiment: as above; assay type: cell-based, Staphylococcus aureus; conditions: Staphylococcus aureus; clinical isolate MRSA SA 630; MH broth, 24 h, 37 °C
Description: as §1

M. kansasii DSM 44162 = experiment: In vitro antimycobacterial evaluation, broth dilution micro-method; assay type: cell-based; conditions: Mycobacterium kansasii, DSM44162, 168 h, Middlebrook 7H9, 7 days, 37 °C
[3] = Lipophilicity determination by RP-HPLC (capacity factor, log k); assay type: physicochemical; conditions: RP-HPLC capacity factor logarithm; C18 column, MeOH 60% / H2O 40%, 40 °C
Description: Lipophilicity of the studied compounds was determined by RP-HPLC as capacity factor logarithm (log k) and calculated as log P using ACD/Percepta software. […] It is important to note that lipophilicity also has a great impact on target and off-target interactions, as mentioned below.
A HPLC system Agilent 1200 equipped with DAD detector (Agilent, Santa Clara, CA, USA) was used. A chromatographic column Symmetry® C18 5 μm, 4.6 × 250 mm, Part No. WAT054275, (Waters Corp., Milford, MA, USA) was used. The HPLC separation process was monitored and evaluated by EZChrom Elite software ver. 3.3.2 (Agilent). Isocratic elution by a mixture of MeOH p.a. (60%) and H2O-HPLC Mili-Q grade (40%) as a mobile phase was used. The total flow of the column was 1.0 mL/min, injection 20 μL, column temperature 40 °C and sample temperature 10 °C. The detection wavelength 210 nm was chosen. The KI methanolic solution was used for the dead time (tD) determination. Retention times (tR) were measured in minutes. The capacity factors k were calculated according to formula k = (tR − tD)/tD, where tR is the retention time of the solute, whereas tD denotes the dead time obtained using an unretained analyte. Log k, calculated from the capacity factor k, is used as the lipophilicity index converted to log P scale.

[4] = test system: methicillin-resistant Staphylococcus aureus (MRSA) 63718; experiment: In vitro antibacterial susceptibility testing, broth dilution micro-method; assay type: cell-based; conditions: Staphylococcus aureus; clinical isolate MRSA 63718; MH broth, 24 h, 37 °C
Description: as §1

[5] = test system: Staphylococcus aureus ATCC 29213; experiment: as above; assay type: cell-based; conditions: ATCC29213, MH broth, 24 h, 37 °C
Description: as §1

[6] = test system: Mycobacterium marinum CAMP 5644; experiment: In vitro antimycobacterial evaluation, broth dilution micro-method; assay type: cell-based; conditions: CAMP5644, 504 h, Middlebrook 7H9, 21 days, 28 °C

| SMILES | MIC [1] | MIC [2] | MIC (M. kansasii DSM 44162) | log k [3] | MIC [4] | MIC [5] | MIC [6] |
| --- | --- | --- | --- | --- | --- | --- | --- |
| O=C(Nc1ccc(F)cc1)c1cc2ccccc2cc1O [4c, N-(4-Fluorophenyl)-3-hydroxynaphthalene-2-carboxamide] | 228 µM (≈ 64.1 µg/mL) | 455 µM (≈ 128 µg/mL) | 114 µM (≈ 32.1 µg/mL) | 0.7317 | > 910 µM | > 910 µM | 910 µM (≈ 256 µg/mL) |
| O=C(Nc1cccc(C(F)(F)F)c1)c1cc2ccccc2cc1O [7b, 3-Hydroxy-N-(3-trifluoromethylphenyl)naphthalene-2-carboxamide] | 187 µM (≈ 62 µg/mL) | 374 µM (≈ 124 µg/mL) | 748 µM (≈ 248 µg/mL) | 1.2053 | > 748 µM | > 748 µM | > 748 µM |
| O=C(Nc1ccc(Cl)cc1)c1cc2ccccc2cc1O [5c, N-(4-Chlorophenyl)-3-hydroxynaphthalene-2-carboxamide] | > 860 µM | > 860 µM | 430 µM (≈ 128 µg/mL) | 1.0687 | > 860 µM | > 860 µM | > 860 µM |
| NNC(=O)c1ccncc1 [INH, isoniazid, reference compound] | – | – | – | – | – | – | 467 µM (≈ 64 µg/mL) |
| O=C(Nc1ccccc1F)c1cc2ccccc2cc1O [compound 4a, N-(2-Fluorophenyl)-3-hydroxynaphthalene-2-carboxamide] | 228 µM (≈ 64.1 µg/mL) | 455 µM (≈ 128 µg/mL) | 56.9 µM (≈ 16 µg/mL) | 0.7303 | > 910 µM | > 910 µM | 28.4 µM (≈ 7.99 µg/mL) |
| O=C(Nc1ccc(C(F)(F)F)cc1)c1cc2ccccc2cc1O [7c, 3-Hydroxy-N-(4-trifluoromethylphenyl)naphthalene-2-carboxamide] | 187 µM (≈ 62 µg/mL) | 374 µM (≈ 124 µg/mL) | 187 µM (≈ 62 µg/mL) | 1.2835 | > 748 µM | > 748 µM | > 748 µM |
| COc1ccc(NC(=O)c2cc3ccccc3cc2O)cc1 [2c, 3-Hydroxy-N-(4-methoxyphenyl)naphthalene-2-carboxamide] | > 873 µM | > 873 µM | 873 µM (≈ 256 µg/mL) | 0.5951 | > 873 µM | > 873 µM | > 873 µM |

Continued, values first:

| MIC [1] | MIC [2] | MIC (M. kansasii DSM 44162) | log k [3] | MIC [4] | MIC [5] | MIC [6] | SMILES |
| --- | --- | --- | --- | --- | --- | --- | --- |
| 462 µM (≈ 128 µg/mL) | > 923 µM | 57.7 µM (≈ 16 µg/mL) | 0.8831 | > 923 µM | > 923 µM | 923 µM (≈ 256 µg/mL) | Cc1cccc(NC(=O)c2cc3ccccc3cc2O)c1 [3b, 3-Hydroxy-N-(3-methylphenyl)naphthalene-2-carboxamide] |
| 462 µM (≈ 128 µg/mL) | > 923 µM | 115 µM (≈ 31.9 µg/mL) | 0.6936 | > 923 µM | > 923 µM | 462 µM (≈ 128 µg/mL) | Cc1ccccc1NC(=O)c1cc2ccccc2cc1O [3a, 3-Hydroxy-N-(2-methylphenyl)naphthalene-2-carboxamide] |
| 215 µM (≈ 64 µg/mL) | > 860 µM | 860 µM (≈ 256 µg/mL) | 0.9509 | > 860 µM | > 860 µM | 860 µM (≈ 256 µg/mL) | O=C(Nc1ccccc1Cl)c1cc2ccccc2cc1O [5a, N-(2-Chlorophenyl)-3-hydroxynaphthalene-2-carboxamide] |
| 228 µM (≈ 64.1 µg/mL) | 455 µM (≈ 128 µg/mL) | 114 µM (≈ 32.1 µg/mL) | 0.8296 | > 910 µM | > 910 µM | 114 µM (≈ 32.1 µg/mL) | O=C(Nc1cccc(F)c1)c1cc2ccccc2cc1O [4b, N-(3-Fluorophenyl)-3-hydroxynaphthalene-2-carboxamide] |
| > 45.8 µM | > 45.8 µM | – | – | > 45.8 µM | 5.7 µM (≈ 1.99 µg/mL) | – | CC1(C)S[C@@H]2[C@H](NC(=O)[C@H](N)c3ccccc3)C(=O)N2[C@H]1C(=O)O [APC, ampicillin, reference compound] |
| > 972 µM | > 972 µM | 972 µM (≈ 256 µg/mL) | 0.6310 | > 972 µM | > 972 µM | 122 µM (≈ 32.1 µg/mL) | O=C(Nc1ccccc1)c1cc2ccccc2cc1O [compound 1, 3-Hydroxy-N-phenylnaphthalene-2-carboxamide] |
